Measured values from patent publication US8003678B2, “Therapeutic substituted thiazolidinones, oxazolidinones, and related compounds” (Allergan, Inc., priority 2006, dated 2011).

Target: EP2 (Homo sapiens, UniProt P43116)
Experiment: EP2 cAMP
Assay type: cell-based
From the text: U.S. patent application Ser. No. 11/553,143, filed on Oct. 26, 2006, incorporated by reference herein, describes the methods used to obtain the in vitro data in the table below.

Sequence of EP2 (P43116 whole entry): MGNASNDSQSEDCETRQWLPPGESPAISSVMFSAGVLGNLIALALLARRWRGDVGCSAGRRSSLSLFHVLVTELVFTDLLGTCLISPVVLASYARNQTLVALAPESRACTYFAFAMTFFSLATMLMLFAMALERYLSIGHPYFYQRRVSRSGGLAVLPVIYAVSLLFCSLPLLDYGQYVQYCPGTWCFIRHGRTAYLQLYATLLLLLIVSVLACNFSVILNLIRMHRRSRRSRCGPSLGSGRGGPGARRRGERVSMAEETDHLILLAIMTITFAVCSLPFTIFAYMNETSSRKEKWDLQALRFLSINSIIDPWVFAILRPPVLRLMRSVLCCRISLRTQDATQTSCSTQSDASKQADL

Row | SMILES | EC50
1 | CCCCCC(O)c1ccc(N2C(=O)CSC2CCCc2ccc(C(=O)O)s2)cc1 (centres unmarked) | 515 nM
2 | CCCCCC(O)c1ccc(N2C(=O)COC2CCCc2ccc(C(=O)O)s2)cc1 (centres unmarked) | 0.06 nM
